Laboratory results reported in BindingDB's records for PubMed 10215699 (Gliatech, 1999).
Several values for one entry are separate records, joined by “and”; a condition that tells them apart may be missing. Equal values may be shown once.

The compounds below were run against Histamine H2 receptor (Homo sapiens, UniProt P25021).
Sequence of Histamine H2 receptor (P25021 whole entry): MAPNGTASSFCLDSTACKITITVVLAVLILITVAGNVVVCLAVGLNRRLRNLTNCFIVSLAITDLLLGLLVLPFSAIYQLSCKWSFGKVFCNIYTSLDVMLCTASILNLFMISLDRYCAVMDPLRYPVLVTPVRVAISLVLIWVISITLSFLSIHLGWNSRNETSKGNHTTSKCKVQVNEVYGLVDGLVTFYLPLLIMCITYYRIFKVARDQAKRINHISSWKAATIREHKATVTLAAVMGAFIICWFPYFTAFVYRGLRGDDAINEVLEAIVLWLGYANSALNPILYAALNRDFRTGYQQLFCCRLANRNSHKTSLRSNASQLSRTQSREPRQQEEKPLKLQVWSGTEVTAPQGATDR

In the case of C(=CCCC1CCCCC1)CCc1cnc[nH]1 [GT 2228], the Ki is reported as 4.47 µM.

These compounds were tested against Hrh3 protein (Rattus norvegicus, UniProt Q5PPG3).
Sequence of Hrh3 protein (Q5PPG3 whole entry): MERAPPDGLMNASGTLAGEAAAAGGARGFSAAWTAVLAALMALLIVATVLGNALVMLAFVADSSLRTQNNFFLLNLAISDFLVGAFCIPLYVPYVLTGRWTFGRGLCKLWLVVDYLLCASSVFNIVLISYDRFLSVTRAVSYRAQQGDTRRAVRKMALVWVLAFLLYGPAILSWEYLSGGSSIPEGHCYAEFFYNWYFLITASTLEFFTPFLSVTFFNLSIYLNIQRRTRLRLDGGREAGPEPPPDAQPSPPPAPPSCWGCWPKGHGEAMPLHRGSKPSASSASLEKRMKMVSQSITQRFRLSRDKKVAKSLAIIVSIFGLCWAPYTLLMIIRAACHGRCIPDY

In order of rising Ki:
1. CC(C)(C)CCC#CCCc1c[nH]cn1  0.00083 µM
2. C(#CCCC1CCCC1)CCc1c[nH]cn1 [GT 2286]  0.00095 µM
3. N[C@H](C=CCCc1cnc[nH]1)CC1CCCCC1 [GT 2231]  0.001 µM
4. C(#CCCC1CCCCC1)CCc1c[nH]cn1 [GT 2260]  0.0029 µM
5. C(#CCCc1c[nH]cn1)CCCC1CCCCC1 [GT 2287]  0.0034 µM
6. C(=CCCc1cnc[nH]1)CCc1ccccc1 [GT 2327]  0.0055 µM
7. N[C@@H](CCc1ccccc1)C(=O)NCCc1c[nH]cn1 [GT 2148]  0.011 µM
8. O=C(CCCC1CCCCC1)NCCc1cnc[nH]1 [GT 2174]  0.016 µM
9. N[C@@H](CC1CCCCC1)C(=O)NCCc1cnc[nH]1 [GT 2140]  0.031 µM
10. c1ncc(CCCCCCC2CCCCC2)[nH]1 [GT 2321]  0.075 µM
11. N[C@@H](Cc1ccccc1)C(=O)NCCc1c[nH]cn1 [GT 2130]  0.104 µM
12. N[C@H](C(=O)NCCc1c[nH]cn1)c1ccccc1 [GT 2146]  0.63 µM
13. C(#Cc1c[nH]cn1)CCCC1CCCCC1 [GT 2288]  1.03 µM
14. CN[C@@H](Cc1ccccc1)C(=O)NCCc1c[nH]cn1 [GT 2142]  1.59 µM
15. N[C@H](Cc1ccccc1)C(=O)NCCc1c[nH]cn1 [GT 2136]  2.81 µM

In the case of C(=CCCC1CCCCC1)CCc1cnc[nH]1 [GT 2228], the Ki is reported as 0.0042 µM and 0.0152 µM.

What follows are compounds tested against Histamine H3 receptor (Homo sapiens, UniProt Q9Y5N1).
Sequence of Histamine H3 receptor (Q9Y5N1 whole entry): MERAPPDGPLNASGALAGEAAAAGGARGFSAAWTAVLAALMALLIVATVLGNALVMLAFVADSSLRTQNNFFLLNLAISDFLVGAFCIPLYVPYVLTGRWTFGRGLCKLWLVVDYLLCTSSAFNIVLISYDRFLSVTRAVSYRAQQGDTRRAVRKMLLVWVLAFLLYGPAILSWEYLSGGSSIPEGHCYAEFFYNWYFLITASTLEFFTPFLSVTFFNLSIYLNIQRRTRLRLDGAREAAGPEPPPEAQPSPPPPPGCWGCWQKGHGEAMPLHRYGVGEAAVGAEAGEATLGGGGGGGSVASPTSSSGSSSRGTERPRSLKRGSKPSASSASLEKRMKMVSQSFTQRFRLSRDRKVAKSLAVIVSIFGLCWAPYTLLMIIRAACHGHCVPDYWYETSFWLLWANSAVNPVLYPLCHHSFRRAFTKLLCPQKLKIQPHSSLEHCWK

C(=CCCC1CCCCC1)CCc1cnc[nH]1 [GT 2228] gave a Ki of 0.0032 µM.
